We go through 4 compounds from the supplement of paper PMC12076712.

One test has as its target T1, ITK (UniProt Q08881).
T1 sequence (whole entry): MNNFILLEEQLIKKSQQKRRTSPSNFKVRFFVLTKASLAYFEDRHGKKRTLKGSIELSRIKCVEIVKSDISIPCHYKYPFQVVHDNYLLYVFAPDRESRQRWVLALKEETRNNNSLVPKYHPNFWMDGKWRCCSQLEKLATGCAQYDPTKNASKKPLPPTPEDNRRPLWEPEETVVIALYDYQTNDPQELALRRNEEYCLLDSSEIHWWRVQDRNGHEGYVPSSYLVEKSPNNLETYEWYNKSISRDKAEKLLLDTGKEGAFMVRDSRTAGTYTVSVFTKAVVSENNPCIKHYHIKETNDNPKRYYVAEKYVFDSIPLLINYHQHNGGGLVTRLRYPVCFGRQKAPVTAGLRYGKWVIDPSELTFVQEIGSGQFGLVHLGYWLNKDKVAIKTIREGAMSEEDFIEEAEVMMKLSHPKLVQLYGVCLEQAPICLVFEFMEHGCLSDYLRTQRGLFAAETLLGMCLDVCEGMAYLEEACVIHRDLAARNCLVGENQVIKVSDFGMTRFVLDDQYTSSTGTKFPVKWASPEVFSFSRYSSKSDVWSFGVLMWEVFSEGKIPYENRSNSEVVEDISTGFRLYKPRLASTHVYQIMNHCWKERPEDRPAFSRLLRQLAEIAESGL
In words: pIC50, kinobeads binding competition. Put shortly: (§1)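 To obtain pIC50, fold changes versus vehicle were fitted to logistic dose-response curves (R drc package) across biological duplicates. Protein binding to Kinobeads was quantified by TMT10 LC-MS/MS of digested bead-bound proteins. Treatments used nine concentrations with a top of 30 μM, applied to live Jurkat cells in 1:4 steps for 60 min at 37 °C before lysis, or to Jurkat lysate or a 1:1:1:1 HEK293/K-562/HepG2/placenta lysate mix in 1:5 steps for 60 min at 4 °C.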

The next test concerns the target SRPK2 (UniProt P78362). Nature of the test: pIC50, kinobeads binding competition. Put shortly: as §1
The target of another test is RNASEL (UniProt Q05823). Nature of the test: pIC50, kinobeads binding competition. The settings on record: cell material: Jurkat cells. In short, it runs like this: as §1
Chain of RNASEL (Q05823 whole entry): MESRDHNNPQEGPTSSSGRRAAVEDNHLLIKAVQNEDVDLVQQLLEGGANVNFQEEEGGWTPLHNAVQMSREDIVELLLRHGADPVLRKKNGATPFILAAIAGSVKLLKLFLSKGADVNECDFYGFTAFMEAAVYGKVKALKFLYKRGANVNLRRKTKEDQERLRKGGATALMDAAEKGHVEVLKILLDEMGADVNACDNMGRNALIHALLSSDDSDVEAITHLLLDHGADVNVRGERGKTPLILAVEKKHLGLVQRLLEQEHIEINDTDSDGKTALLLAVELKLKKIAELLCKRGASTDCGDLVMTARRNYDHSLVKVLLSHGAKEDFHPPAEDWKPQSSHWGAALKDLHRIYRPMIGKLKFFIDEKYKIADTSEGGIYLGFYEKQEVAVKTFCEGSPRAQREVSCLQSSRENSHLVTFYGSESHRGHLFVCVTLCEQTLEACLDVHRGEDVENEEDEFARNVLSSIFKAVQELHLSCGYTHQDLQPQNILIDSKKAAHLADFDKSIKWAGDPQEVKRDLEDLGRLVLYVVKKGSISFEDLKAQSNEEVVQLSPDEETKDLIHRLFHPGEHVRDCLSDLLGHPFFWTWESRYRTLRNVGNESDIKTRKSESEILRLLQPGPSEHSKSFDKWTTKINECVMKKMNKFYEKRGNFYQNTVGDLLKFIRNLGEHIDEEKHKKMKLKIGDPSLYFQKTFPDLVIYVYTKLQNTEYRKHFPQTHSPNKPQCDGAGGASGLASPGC
The target in the next test is BLK (UniProt P51451). Nature of the test: pIC50, kinobeads binding competition. In short, it runs like this:
as §1

A further test concerns the target ABHD6 (UniProt Q9BV23). In words: pIC50, competition of probe 3 labelling in live cells. As to conditions: cell material: Jurkat cells.
The next test has as its target SPR (UniProt P35270). The test is described as above. The settings on record: cell material: Jurkat cells.
The next test concerns the target LYPLA1 (UniProt O75608). Described as above. The settings on record: cell material: Jurkat cells.
A further test concerns the target ABCC1 (UniProt P33527). The test is described as above. The settings on record: cell material: Jurkat cells.
The target in a further test is T2, UniProt Q15831.
T2 sequence (whole entry): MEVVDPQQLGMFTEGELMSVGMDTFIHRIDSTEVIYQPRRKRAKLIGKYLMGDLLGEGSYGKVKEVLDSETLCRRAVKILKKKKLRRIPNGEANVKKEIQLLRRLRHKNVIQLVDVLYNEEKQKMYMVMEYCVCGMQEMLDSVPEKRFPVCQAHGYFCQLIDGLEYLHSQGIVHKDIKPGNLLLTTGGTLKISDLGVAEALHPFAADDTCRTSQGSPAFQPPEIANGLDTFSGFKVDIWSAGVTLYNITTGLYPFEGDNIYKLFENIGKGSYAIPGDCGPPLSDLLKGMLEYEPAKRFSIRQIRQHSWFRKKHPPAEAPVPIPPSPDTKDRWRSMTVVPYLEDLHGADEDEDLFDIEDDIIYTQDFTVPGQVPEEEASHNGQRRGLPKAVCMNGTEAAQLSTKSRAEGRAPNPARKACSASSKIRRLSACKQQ
The test is described as above. As to conditions: cell material: Jurkat cells.

The next test concerns the target UniProt P51812. The description is as above. As to conditions: cell material: Jurkat cells.
Another test has as its target T3, MASTL (UniProt Q96GX5).
T3 sequence (whole entry): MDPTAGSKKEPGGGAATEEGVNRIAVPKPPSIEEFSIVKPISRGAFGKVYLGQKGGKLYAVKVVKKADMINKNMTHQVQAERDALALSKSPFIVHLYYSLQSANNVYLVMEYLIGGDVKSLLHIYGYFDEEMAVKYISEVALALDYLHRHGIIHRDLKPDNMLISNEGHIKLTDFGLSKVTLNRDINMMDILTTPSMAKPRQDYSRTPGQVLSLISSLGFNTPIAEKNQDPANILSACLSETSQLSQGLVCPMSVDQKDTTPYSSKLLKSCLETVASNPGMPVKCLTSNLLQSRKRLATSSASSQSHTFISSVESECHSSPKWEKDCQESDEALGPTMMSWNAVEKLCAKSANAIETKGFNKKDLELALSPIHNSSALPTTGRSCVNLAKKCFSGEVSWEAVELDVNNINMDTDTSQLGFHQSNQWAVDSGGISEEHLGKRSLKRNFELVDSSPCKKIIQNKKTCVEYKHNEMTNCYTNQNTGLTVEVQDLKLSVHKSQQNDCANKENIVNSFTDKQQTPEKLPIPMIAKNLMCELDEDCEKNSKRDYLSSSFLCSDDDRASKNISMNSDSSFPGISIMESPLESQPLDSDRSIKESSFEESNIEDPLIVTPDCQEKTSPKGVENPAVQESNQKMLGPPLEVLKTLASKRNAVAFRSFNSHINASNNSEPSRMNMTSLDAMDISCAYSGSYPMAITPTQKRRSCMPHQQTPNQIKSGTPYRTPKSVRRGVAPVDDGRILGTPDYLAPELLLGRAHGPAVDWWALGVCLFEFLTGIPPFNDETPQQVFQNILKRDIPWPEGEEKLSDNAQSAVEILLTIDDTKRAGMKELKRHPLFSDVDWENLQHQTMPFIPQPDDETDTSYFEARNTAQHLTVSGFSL
Described as above. The settings on record: cell material: Jurkat cells.

A further test has as its target UniProt P49840. The test is described as above. As to conditions: cell material: Jurkat cells.

± gives the standard deviation of the averaged measurements.

Chain of BLK (P51451 whole entry, looked up): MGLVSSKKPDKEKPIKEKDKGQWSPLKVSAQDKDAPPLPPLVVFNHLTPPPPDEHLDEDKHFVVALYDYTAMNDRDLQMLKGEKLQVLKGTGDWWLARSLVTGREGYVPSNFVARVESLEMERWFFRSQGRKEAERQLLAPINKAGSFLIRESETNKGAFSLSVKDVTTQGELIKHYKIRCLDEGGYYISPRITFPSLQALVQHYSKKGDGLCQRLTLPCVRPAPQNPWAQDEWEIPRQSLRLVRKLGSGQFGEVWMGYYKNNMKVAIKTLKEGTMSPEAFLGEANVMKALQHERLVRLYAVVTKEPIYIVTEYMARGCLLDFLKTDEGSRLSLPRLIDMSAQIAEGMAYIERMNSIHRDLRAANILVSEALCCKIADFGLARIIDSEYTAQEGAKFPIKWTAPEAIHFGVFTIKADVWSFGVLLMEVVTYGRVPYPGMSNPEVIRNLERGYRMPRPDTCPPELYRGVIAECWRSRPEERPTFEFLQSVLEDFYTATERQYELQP
Chain of SRPK2 (P78362 whole entry, looked up): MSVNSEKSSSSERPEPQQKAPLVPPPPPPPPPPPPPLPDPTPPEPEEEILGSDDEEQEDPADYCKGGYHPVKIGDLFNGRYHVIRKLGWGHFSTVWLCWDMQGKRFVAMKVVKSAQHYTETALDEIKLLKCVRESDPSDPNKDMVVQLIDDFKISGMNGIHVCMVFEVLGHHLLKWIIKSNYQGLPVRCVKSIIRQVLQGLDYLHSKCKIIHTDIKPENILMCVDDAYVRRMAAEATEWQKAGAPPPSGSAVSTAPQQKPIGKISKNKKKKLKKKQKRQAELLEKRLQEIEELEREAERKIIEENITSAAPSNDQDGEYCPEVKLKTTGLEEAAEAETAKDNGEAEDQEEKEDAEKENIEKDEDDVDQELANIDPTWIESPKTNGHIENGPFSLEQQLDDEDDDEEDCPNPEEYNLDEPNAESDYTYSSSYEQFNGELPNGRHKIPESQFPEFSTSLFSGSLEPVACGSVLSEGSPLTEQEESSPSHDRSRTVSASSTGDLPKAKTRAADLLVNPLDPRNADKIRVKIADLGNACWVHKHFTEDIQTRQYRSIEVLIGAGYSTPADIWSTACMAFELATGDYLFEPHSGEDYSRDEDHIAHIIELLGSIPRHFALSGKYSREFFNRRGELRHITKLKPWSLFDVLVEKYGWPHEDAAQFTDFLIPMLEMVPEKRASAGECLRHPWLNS
Chain of LYPLA1 (O75608 whole entry): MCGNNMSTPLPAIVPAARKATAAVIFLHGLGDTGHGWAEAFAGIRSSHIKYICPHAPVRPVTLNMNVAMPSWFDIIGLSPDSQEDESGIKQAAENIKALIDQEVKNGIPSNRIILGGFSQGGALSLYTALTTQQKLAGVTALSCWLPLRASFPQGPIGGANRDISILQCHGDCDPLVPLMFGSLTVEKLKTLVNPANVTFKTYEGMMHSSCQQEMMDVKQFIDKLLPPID
Chain of UniProt P49840 (P49840 whole entry, looked up): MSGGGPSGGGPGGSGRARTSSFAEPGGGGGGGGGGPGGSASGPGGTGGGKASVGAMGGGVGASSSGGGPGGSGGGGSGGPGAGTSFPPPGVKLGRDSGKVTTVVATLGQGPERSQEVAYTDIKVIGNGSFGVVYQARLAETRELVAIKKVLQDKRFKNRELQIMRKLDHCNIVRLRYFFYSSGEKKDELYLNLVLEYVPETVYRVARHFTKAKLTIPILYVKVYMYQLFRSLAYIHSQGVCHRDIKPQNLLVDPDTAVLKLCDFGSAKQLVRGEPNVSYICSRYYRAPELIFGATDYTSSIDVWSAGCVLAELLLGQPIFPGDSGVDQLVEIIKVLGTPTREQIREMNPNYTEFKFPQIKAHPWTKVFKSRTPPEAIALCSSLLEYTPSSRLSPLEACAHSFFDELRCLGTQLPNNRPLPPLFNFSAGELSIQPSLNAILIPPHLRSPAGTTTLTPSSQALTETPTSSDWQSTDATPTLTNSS
Chain of UniProt P51812 (P51812 whole entry): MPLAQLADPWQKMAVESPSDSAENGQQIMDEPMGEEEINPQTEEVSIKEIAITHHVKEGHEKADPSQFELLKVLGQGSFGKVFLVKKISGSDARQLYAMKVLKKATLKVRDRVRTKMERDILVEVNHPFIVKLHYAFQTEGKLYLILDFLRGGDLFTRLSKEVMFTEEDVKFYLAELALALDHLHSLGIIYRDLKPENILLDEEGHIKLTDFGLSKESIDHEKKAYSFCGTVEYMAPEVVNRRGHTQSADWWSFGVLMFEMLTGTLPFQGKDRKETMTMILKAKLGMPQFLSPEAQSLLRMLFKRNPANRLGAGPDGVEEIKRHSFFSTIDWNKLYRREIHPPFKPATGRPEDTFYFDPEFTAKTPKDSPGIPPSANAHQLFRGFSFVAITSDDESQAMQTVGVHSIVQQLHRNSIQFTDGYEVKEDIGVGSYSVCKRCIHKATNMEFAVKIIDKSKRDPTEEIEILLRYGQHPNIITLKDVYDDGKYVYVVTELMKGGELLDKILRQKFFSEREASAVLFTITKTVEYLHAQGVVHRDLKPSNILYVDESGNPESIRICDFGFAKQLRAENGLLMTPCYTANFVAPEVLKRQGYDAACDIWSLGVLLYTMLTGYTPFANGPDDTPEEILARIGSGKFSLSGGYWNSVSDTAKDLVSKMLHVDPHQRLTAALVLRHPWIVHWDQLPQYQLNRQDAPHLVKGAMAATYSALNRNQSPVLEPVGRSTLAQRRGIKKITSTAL
Chain of ABCC1 (P33527 whole entry, looked up): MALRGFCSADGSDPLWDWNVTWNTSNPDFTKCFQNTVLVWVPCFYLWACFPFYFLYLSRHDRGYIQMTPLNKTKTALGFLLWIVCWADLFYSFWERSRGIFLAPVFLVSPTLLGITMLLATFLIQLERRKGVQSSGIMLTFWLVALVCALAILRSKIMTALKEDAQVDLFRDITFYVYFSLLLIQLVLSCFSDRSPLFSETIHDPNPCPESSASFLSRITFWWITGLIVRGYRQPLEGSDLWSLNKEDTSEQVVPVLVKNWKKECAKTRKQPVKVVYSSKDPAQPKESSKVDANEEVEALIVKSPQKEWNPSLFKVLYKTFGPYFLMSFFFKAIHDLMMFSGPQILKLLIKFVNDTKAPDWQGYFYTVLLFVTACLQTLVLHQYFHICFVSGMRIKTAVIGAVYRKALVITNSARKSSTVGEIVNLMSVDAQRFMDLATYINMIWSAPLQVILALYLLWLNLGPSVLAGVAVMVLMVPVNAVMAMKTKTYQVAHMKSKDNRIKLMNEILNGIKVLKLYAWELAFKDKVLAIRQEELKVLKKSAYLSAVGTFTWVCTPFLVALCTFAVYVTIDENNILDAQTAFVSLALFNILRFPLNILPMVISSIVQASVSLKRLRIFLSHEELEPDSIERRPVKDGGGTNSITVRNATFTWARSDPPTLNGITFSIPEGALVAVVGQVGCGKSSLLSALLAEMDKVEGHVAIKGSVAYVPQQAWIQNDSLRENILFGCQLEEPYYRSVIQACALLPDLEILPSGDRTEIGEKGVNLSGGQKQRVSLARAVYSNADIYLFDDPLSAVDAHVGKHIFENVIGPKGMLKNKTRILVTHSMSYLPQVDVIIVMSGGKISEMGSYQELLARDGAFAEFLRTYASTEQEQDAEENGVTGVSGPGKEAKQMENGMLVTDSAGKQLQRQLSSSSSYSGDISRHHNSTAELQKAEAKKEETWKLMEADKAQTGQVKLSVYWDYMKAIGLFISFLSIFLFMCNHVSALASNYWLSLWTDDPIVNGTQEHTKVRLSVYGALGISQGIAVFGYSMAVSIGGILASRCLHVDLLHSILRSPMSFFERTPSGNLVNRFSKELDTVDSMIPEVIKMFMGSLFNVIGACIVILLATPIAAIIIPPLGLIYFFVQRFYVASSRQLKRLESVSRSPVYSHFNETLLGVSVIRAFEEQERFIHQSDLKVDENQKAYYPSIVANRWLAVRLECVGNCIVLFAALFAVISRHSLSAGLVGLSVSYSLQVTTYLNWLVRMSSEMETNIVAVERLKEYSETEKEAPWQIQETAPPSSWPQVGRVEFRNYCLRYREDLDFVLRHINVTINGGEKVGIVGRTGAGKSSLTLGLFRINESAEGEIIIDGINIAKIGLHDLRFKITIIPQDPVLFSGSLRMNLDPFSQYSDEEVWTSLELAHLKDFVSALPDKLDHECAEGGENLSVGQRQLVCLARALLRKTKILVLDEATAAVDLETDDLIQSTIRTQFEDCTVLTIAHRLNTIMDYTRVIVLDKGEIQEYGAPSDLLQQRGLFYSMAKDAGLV

With `C#CCNC(=O)c1cc(Nc2cc(C3CC3)[nH]n2)nc(N2CCN(Cc3ccc(S(=O)(=O)F)cc3)CC2)n1`, the pIC50 on ITK (cell material: Jurkat cells) was 6.78; at ITK (cell material: Jurkat lysate), 5.4; on SRPK2 (cell material: Jurkat cells), under 4.52; at SRPK2 (cell material: Jurkat lysate), under 4.52; at RNASEL it was under 4.52; on BLK (cell material: Jurkat cells), 6.82. The pIC50 at BLK (cell material: Jurkat lysate) was determined as 6.51.
Consider `CCc1cnn2c(NCc3ccc[n+]([O-])c3)cc(N3CCCC[C@H]3CCO)nc12` [dinaciclib], for which the pIC50 on ABHD6 was under 4.52; on SPR, under 4.52; at LYPLA1 it was under 4.52; on ABCC1, under 4.52; on UniProt Q15831 it was 5.24 ± 0.12.
As to `CC#CC(=O)Nc1ccc2ncnc(Nc3cccc(Br)c3)c2c1` [EKI-785], the pIC50 at UniProt P51812, on MASTL and on UniProt P49840 was under 4.52 in each case.
Turning to `O=C(NCCNC(=O)c1cc(Nc2cc(C3CC3)[nH]n2)nc(N2CCN(Cc3ccc(S(=O)(=O)F)cc3)CC2)n1)OC1CC/C=C/CCC1` (configuration not stated), the pIC50 on ITK (cell material: Jurkat cells) is 6.7; on ITK (cell material: Jurkat lysate), under 4.52; at SRPK2 (cell material: Jurkat cells), under 4.52; on SRPK2 (cell material: Jurkat lysate), under 4.52; on RNASEL it was under 4.52; at BLK (cell material: Jurkat cells), 6.73. Further, on BLK (cell material: Jurkat lysate), the pIC50 turned out to be 5.1.
